The text below walks through data of patent US20260234185A1, “ANTI-AGING COMPOSITION COMPRISING PEPTIDE COMPLEX AS ACTIVE INGREDIENT” (priority 2023, published 2026).

One assay relates to FGF21 protein. Briefly: ELISA of FGF21 protein expression in adipocytes. It is filed as cell-based. The conditions noted are these: differentiated 3T3-L1 adipocytes, 0.2, 2, 20 μg/mL, ELISA (FIG. 2). The method, then: An experiment was performed using adipocytes to determine whether the peptide complex prepared in Preparation Example 1 increases the expression level of FGF21 protein, a longevity-related protein, in adipocytes.
When 3T3-L1 preadipocytes reached 80% confluence, they were seeded at 5×10^3 cells/well in a 96-well plate and used for the experiment. Two days after reaching confluence, the medium was replaced with a differentiation-inducing medium to induce the differentiation into adipocytes, and two days after the induction, the cells were cultured for 2 days in a medium containing 10% FBS and 10 μg/mL insulin, and then the medium was replaced with 10% FBS every 2 days until differentiation into adipocytes. Once the differentiation was complete, the medium was replaced with a serum-free medium and cultured for 4 hours to induce starvation. The peptide complexes were treated at concentrations of 0.2 μg/mL, 2 μg/mL, and 20 μg/mL, and cultured for 48 and 72 hours, respectively. The complexes were dissolved by adding dissolution buffer thereto, and the proteins obtained by centrifugation at 4° C. and 12,000 rpm for 10 minutes were analyzed using a Quantikine ELISA Kit, and the absorbance was measured at 450 nm using a Microplate Reader.
(In general: ELISA stands for enzyme-linked immunosorbent assay.)

The test system of another assay is IκBα. Briefly: Western blot of IκBα phosphorylation in adipocytes with palmitate-induced inflammation. It is filed as cell-based. To be noted: 3T3-L1 adipocytes, inflammation induced by 25 μM palmitate; 0.2, 2, 20 μg/mL; 24 hours; Western blot vs PA control (FIGS. 5a, 5b). The method, then:
An experiment was performed to determine whether the peptide complex prepared in Preparation Example 1 induces a decrease in the phosphorylation of IκBα and a decrease in the expression level of the inflammatory cytokine TNFα in adipocytes under an inflammatory state induced by palmitate treatment.
When 3T3-L1 preadipocytes reached 80% confluence, they were seeded at 5×10^3 cells/well in a 96-well plate and used for the experiment. Two days after reaching confluence, the medium was replaced with a differentiation-inducing medium to induce the differentiation into adipocytes. Two days after the induction, the cells were cultured for 2 days in a medium containing 10% FBS and 10 μg/mL insulin, and then the medium was replaced with 10% FBS every days 2 until their differentiation into adipocytes. Once the differentiation was complete, the medium was replaced with a serum-free medium and cultured for 4 hours to induce starvation. After treating with 25 μM palmitate for 30 minutes, the peptide complexes were treated at concentrations of 0.2 μg/mL, 2 μg/mL, and 20 μg/mL and incubated for 24 hours. The control group (PA) was treated only with palmitate but not with the peptide complex. After dissolving by adding dissolution buffer thereto, the proteins obtained by centrifugation at 4° C. and 12,000 rpm for 30 minutes were quantified using a BCA kit. […]
For orientation: In western blotting, separated proteins are transferred to a membrane and probed.

The subject of assay [1] is AMPK. Put plainly: Western blot of AMPK phosphorylation in myocytes. It is filed as cell-based, mouse. The conditions noted are these: differentiated C2C12 myocytes; 0.2, 2, 20 μg/mL; 24 hours; Western blot (FIGS. 6a, 6b). As to the method:
An experiment was performed to determine whether the peptide complex increases the phosphorylation of AMPK and the expression of SIRT1 and FGF21 proteins in myocytes.
(§1) C2C12 cells, mouse-derived myoblasts, were cultured in DMEM medium containing 1% P/S and 2% BCS. When the cell confluency reached 70-80%, the cells were seeded in a 6-well culture plate. When the cell confluency in the 6-well culture plate reached 100%, the medium was replaced with differentiation medium (1% P/S, 2% horse serum), and thereafter, the differentiation medium (1% P/S, 2% horse serum) was replaced once every two days. Five days after the first replacement, the peptide complex was treated at concentrations of 0.2 μg/mL, 2 μg/mL, and 20 μg/mL and cultured for 24 hours. The group untreated with the peptide complex was used as the control. After dissolving by adding dissolution buffer thereto, the proteins obtained were centrifuged at 4° C. and 12,000 rpm for 30 minutes, and quantified using a BCA kit. The proteins were subjected to sodium dodecyl sulfate-polyacrylamide gel electrophoresis (SDS-PAGE) and then electrotransferred onto a membrane. The membrane with the proteins attached was blocked by treating it with 5% skim milk, and then the primary antibody was reacted overnight at 4° C. […]

Assay [2] relates to AMPK. Briefly: Western blot of AMPK phosphorylation in myocytes with palmitate-induced insulin metabolic disorder. It is filed as cell-based, mouse. To be noted: C2C12 myocytes in insulin metabolic disorder induced by palmitate treatment; 0.2, 2, 20 μg/mL; 24 hours; Western blot (FIGS. 7a, 7b). As to the method:
An experiment was performed to determine whether the peptide complex increases AMPK phosphorylation and SIRT1 expression levels in myocytes in a state of insulin metabolic disorder induced by palmitate treatment.
as §1

Where no end group is shown, it is not given here.

As for “peptide complex: prepared by mixing equal amounts of the peptide of SEQ ID NO: 1 (LKTRN) and the peptide of SEQ ID NO: 2 (KGSATGWMA) (also: mixture of two peptides)”, the “expression level of FGF21 protein” value with FGF21 protein (48 hours) and with FGF21 protein (72 hours) was “increased” throughout. Also, the “phosphorylation of IκBα” value in the assay on IκBα is on record as “reduced”. In addition, the “phosphorylation of AMPK” value with AMPK [1] and with AMPK [2] was “increased” throughout.
